Each structure is given as a SMILES string. Bridge positions count the residues as written; N and C are the ends. Square brackets hold non-standard residues; d marks the D form. Peptide text beside a SMILES is read from it. Trp(7-Me) = Cc1cccc2c(C[C@H](N)C(=O)O)c[nH]c12; Trp(2-Me) = Cc1[nH]c2ccccc2c1C[C@H](N)C(=O)O; AEF = NCCOc1ccc(C[C@H](N)C(=O)O)cc1; Pen = CC(C)(S)[C@H](N)C(=O)O; αMeK = C[C@](N)(CCCCN)C(=O)O

One test concerns the target T1, IL-23R (Homo sapiens, UniProt Q5VWK5).
T1 sequence (Q5VWK5 24-629): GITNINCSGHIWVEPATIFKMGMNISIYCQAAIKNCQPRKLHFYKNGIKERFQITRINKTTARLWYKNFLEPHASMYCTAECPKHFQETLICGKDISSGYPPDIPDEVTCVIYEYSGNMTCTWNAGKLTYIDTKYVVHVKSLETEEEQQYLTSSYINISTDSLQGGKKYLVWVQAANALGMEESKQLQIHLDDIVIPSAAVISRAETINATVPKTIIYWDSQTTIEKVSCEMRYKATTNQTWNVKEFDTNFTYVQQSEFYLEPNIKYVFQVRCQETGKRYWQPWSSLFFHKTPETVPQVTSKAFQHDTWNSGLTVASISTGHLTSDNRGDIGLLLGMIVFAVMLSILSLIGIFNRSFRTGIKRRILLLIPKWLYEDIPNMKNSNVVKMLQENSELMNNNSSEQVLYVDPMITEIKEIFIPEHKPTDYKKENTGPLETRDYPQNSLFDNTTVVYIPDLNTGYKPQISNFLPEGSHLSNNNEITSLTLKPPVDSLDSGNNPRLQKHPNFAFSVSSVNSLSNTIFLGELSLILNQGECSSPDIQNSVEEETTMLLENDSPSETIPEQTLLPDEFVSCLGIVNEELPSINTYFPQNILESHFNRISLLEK
As to the kind of experiment: DB cells IL23R pSTAT3 cell assay (pStat3 HTRF). Format: cell-based.
Details: not given
The source says:
Human ELISA indicates the IL23-IL23R competitive binding assay described below, Rat ELISA indicates the rat IL-23R competitive binding ELISA assay described below, and pStat3HTRF indicates the DB cells IL-23R pSTAT3 cell assay described below. The peptides depicted in Table E1 are cyclized via a disulfide bridge formed between two Pen residues in these peptides. The peptides depicted in Table E2 are cyclized via a thioether bond between the indicated amino acid residues. Table E2 provides an illustrative structure depicting thioether cyclization, which is indicated in the table by the term “cyclo,” with the cyclic region bracketed immediately following the term “cyclo.” For certain peptides, the residue Abu is present where indicated, whereas in other embodiments, e.g., those related to the non-cyclized form, the Abu may be referred to as a hSer(Cl) or homoSer residue.
DB Cells IL23R pSTAT3 Cell Assay
IL-23 plays a central role in supporting and maintaining Th17 differentiation in vivo. This process is thought to be mediated primarily through the Signal Transducer and Activator of Transcription 3 (STAT3), with phosphorylation of STAT3 (to yield pSTAT3) leading to upregulation of RORC and pro-inflammatory IL-17. This cell assay examines the levels of pSTAT3 in IL-23R-expressing DB cells when stimulated with IL-23 in the presence of test compounds. Serial dilutions of test peptides and IL-23 (Humanzyme #HZ-1261) at a final concentration of 0.5 nM, were added to each well in a 96 well tissue culture plate (Corning #CLS3894). DB cells (ATCC #CRL-2289), cultured in RPMI-1640 medium (Thermo Scientific #11875093) supplemented with 10% FBS, were added at 5×10E5 cells/well and incubated for 30 minutes at 37° C. in a 5% CO2 humidified incubator. Changes in phospho-STAT3 levels in the cell lysates were detected using the Cisbio HTRF pSTAT3 (Tyr705) Cellular Assay Kit (Cisbio #62AT3PEH), according to manufacturer's Two Plate Assay protocol.
One may read the IC50 as the point on the concentration scale where inhibition reaches its midpoint. With `CCCCCCCC(=O)NCCCC[C@@H]1NC(=O)[C@H](Cc2c[nH]c3c(C)cccc23)NC(=O)[C@H]([C@@H](C)O)NC(=O)[C@H](CC(N)=O)NC(=O)[C@@H](NC(C)=O)C(C)(C)SSC(C)(C)[C@@H](C(=O)N[C@@H](Cc2ccc(OCCN)cc2)C(=O)N[C@@H](Cc2ccc3ccccc3c2)C(=O)N[C@@](C)(CCCCN)C(=O)N[C@@H](CCCCNC(C)=O)C(=O)N[C@@H](CC(N)=O)C(=O)N[C@H](CC(C)C)C(N)=O)NC1=O` [compound 317], the IC50 was 1 to 10 nM.

Consider `CC(=O)NCCCC[C@H](NC(=O)[C@](C)(CC(C)C)NC(=O)[C@H](Cc1c[nH]c2ccc(Cl)cc12)NC(=O)[C@H](Cc1ccc(OCCN)cc1)NC(=O)[C@H]1NC(=O)[C@H](CCC(N)=O)NC(=O)[C@H](Cc2c[nH]c3ccccc23)NC(=O)[C@H]([C@@H](C)O)NC(=O)[C@H](CC(N)=O)NC(=O)[C@@H](NC(C)=O)C(C)(C)SSC1(C)C)C(=O)N[C@@H](CC(N)=O)C(=O)N[C@@H](CC(N)=O)C(N)=O` [compound 12], for which the IC50 was above 100 nM.

On to `CC(=O)NCCCC[C@H](NC(=O)[C@](C)(CC(C)C)NC(=O)[C@H](Cc1c[nH]c2c(F)cccc12)NC(=O)[C@H](Cc1ccc(OCCN)cc1)NC(=O)[C@H]1NC(=O)[C@H](CCC(N)=O)NC(=O)[C@H](Cc2c[nH]c3ccccc23)NC(=O)[C@H]([C@@H](C)O)NC(=O)[C@H](CC(N)=O)NC(=O)[C@@H](NC(C)=O)C(C)(C)SSC1(C)C)C(=O)N[C@@H](CC(N)=O)C(=O)N[C@@H](CC(N)=O)C(N)=O` [compound 19], for which the IC50 was in the range of 10 to 100 nM.

`CC(=O)NCCCC[C@@H]1NC(=O)[C@H](Cc2c[nH]c3c(C)cccc23)NC(=O)[C@H]([C@@H](C)O)NC(=O)[C@H](CC(N)=O)NC(=O)[C@@H](NC(C)=O)C(C)(C)SSC(C)(C)[C@@H](C(=O)N[C@@H](Cc2ccc(OCCN)cc2)C(=O)N[C@@H](Cc2ccc3ccccc3c2)C(=O)N[C@@](C)(CCCCN)C(=O)N[C@@H](CCCCNC(C)=O)C(=O)N[C@@H](CO)C(=O)N[C@H](CCCCN)C(N)=O)NC1=O` [compound 352]: the IC50 fell in the range of 1 to 10 nM.

Compound `CC(=O)NCCCC[C@H](NC(=O)[C@](C)(CC(C)C)NC(=O)[C@H](Cc1c[nH]c2c(C)cccc12)NC(=O)[C@H](Cc1ccc(OCCN)cc1)NC(=O)[C@H]1NC(=O)[C@H](CCC(N)=O)NC(=O)[C@H](Cc2c[nH]c3ccccc23)NC(=O)[C@H]([C@@H](C)O)NC(=O)[C@H](CC(N)=O)NC(=O)[C@@H](NC(C)=O)C(C)(C)SSC1(C)C)C(=O)N[C@@H](CC(N)=O)C(=O)N[C@@H](CC(N)=O)C(N)=O` [compound 17] registered an IC50 of 10 to 100 nM.

Consider `CC(=O)NCCCC[C@H](NC(=O)[C@](C)(CC(C)C)NC(=O)[C@H](Cc1ccc2ccccc2c1)NC(=O)[C@H](Cc1ccc(OCCN)cc1)NC(=O)[C@H]1NC(=O)[C@H](CCC(N)=O)NC(=O)[C@H](Cc2c[nH]c3ccc(Br)cc23)NC(=O)[C@H]([C@@H](C)O)NC(=O)[C@H](CC(N)=O)NC(=O)[C@@H](NC(C)=O)C(C)(C)SSC1(C)C)C(=O)N[C@@H](CC(N)=O)C(=O)N[C@@H](CC(N)=O)C(N)=O` [compound 11], for which the IC50 is above 100 nM.

With `COc1ccc2[nH]cc(C[C@H](NC(=O)[C@H](Cc3ccc(OCCN)cc3)NC(=O)[C@H]3NC(=O)[C@H](CCC(N)=O)NC(=O)[C@H](Cc4c[nH]c5ccccc45)NC(=O)[C@H]([C@@H](C)O)NC(=O)[C@H](CC(N)=O)NC(=O)[C@@H](NC(C)=O)C(C)(C)SSC3(C)C)C(=O)N[C@@](C)(CC(C)C)C(=O)N[C@@H](CCCCNC(C)=O)C(=O)N[C@@H](CC(N)=O)C(=O)N[C@@H](CC(N)=O)C(N)=O)c2c1` [compound 20], the 50% inhibitory concentration (IC50) is 10 to 100 nM.

The test is the same for the next values; noted with them: Table E3; DB cells, IL-23 0.5 nM, 30 minutes at 37° C.; read-out: pStat3 HTRF (IC50).
For `CC(=O)NCCCC[C@@H]1NC(=O)[C@H](Cc2c[nH]c3c(C)cccc23)NC(=O)[C@H]([C@@H](C)O)NC(=O)[C@H](CC(N)=O)NC(=O)[C@@H](NC(C)=O)C(C)(C)SSC(C)(C)[C@@H](C(=O)N[C@@H](Cc2ccc(OCCN)cc2)C(=O)N[C@@H](Cc2c(C)[nH]c3ccccc23)C(=O)N[C@@](C)(CCCCN)C(=O)N[C@@H](CCCCNC(C)=O)C(=O)N[C@@H](CC(N)=O)C(=O)N[C@H](CCCCN)C(N)=O)NC1=O` [compound 353] (Ac-[Pen]NT[Trp(7-Me)]K(Ac)[Pen][AEF][Trp(2-Me)][αMeK]K(Ac)N[dK]-NH2; disulfide 1-6), the concentration for half-maximal inhibition (IC50) is below 1 nM.

The values are drawn from US20260116921A1, “PEPTIDE INHIBITORS OF INTERLEUKIN-23 RECEPTOR AND THEIR USE TO TREAT INFLAMMATORY DISEASES” (priority 2018, published 2026).
